From patent US11399543B2, “Substituted 1,2,3,5-tetrahydroimidazo[1,2-a]pyrimidiniumolates for combating animal pests” (BASF SE, priority 2017, dated 2022)
Where two headings read alike, the source gives them in different places.

Tests used:
Type in all cases: in vivo
[1] = test system: Cowpea Aphid (Aphis craccivora); experiment: Cowpea aphid, sprayed potted cowpea plants; conditions: after 72 hours, read-out: mortality in comparison with untreated controls
Procedure: (§1) The active compound is dissolved at the desired concentration in a mixture of 1:1 (vol:vol) distilled water:acetone. Surfactant (Alkamuls® EL 620) is added at a rate of 0.1% (vol/vol). The test solution is prepared at the day of use.
Potted cowpea plants were colonized with approximately 50-100 aphids of various stages by manually transferring a leaf tissue cut from infested plant 24 hours before application. Plants were sprayed after the pest population has been recorded. Treated plants are maintained on light carts at about 28° C. Percent mortality was assessed after 72 hours.

[2] = test system: green peach aphid (Myzus persicae); experiment: Green peach aphid B.5.2, systemic, artificial diet under membrane; conditions: 72 h, read-out: mortality in comparison with untreated controls
Excerpt: B.5.2. For evaluating control of green peach aphid (Myzus persicae) through systemic means the test unit consisted of 96-well-microtiter plates containing liquid artificial diet under an artificial membrane. The compounds were formulated using a solution containing 75% v/v water and 25% v/v DMSO. Different concentrations of formulated compounds were pipetted into the aphid diet, using a custom built pipetter, at two replications.
After application, 5-8 adult aphids were placed on the artificial membrane inside the microtiter plate wells. The aphids were then allowed to suck on the treated aphid diet and incubated at about 23±1° C. and about 50±5% relative humidity for 3 days. Aphid mortality and fecundity was then visually assessed.

[3] = test system: Rice Green Leafhopper (Nephotettix virescens); experiment: Rice green leafhopper, sprayed rice seedlings; conditions: after 72 hours, adults, read-out: mortality in comparison with untreated controls
Procedure: (§2) Rice seedlings were cleaned and washed 24 hours before spraying. The active compounds were formulated in 50:50 acetone:water (vol:vol), and 0.1% vol/vol surfactant (EL 620) was added. Potted rice seedlings were sprayed with 5 ml test solution, air dried, placed in cages and inoculated with 10 adults. Treated rice plants were kept at about 28-29° C. and relative humidity of about 50-60%. Percent mortality was recorded after 72 hours.

[4] = test system: Rice Brown Plant Hopper (Nilaparvata lugens); experiment: Rice brown plant hopper, sprayed rice seedlings; conditions: after 72 hours, adults, read-out: mortality in comparison with untreated controls
Procedure: as §2, with “(vol:vol)” for “(vol:vol),”

[5] = test system: tobacco budworm (Heliothis virescens); experiment: Tobacco budworm control, microtiter plate insect diet with eggs; conditions: 120 h, 5 days, read-out: mortality in comparison with untreated controls (egg and larval mortality)
Procedure: For evaluating control of tobacco budworm (Heliothis virescens) the test unit consisted of 96-well-microtiter plates containing an insect diet and 15-25 H. virescens eggs.
The compounds were formulated using a solution containing 75% v/v water and 25% v/v DMSO. Different concentrations of formulated compounds were sprayed onto the insect diet at 10 μl, using a custom built micro atomizer, at two replications.
After application, microtiter plates were incubated at about 28±1° C. and about 80±5% relative humidity for 5 days. Egg and larval mortality was then visually assessed.

[6] = test system: vetch aphid (Megoura viciae); experiment: Vetch aphid, broad bean leaf disks, contact or systemic; conditions: foliar, 120 h, 5 days, read-out: mortality in comparison with untreated controls
Procedure: For evaluating control of vetch aphid (Megoura viciae) through contact or systemic means the test unit consisted of 24-well-microtiter plates containing broad bean leaf disks.
The compounds were formulated using a solution containing 75% v/v water and 25% v/v DMSO. Different concentrations of formulated compounds were sprayed onto the leaf disks at 2.5 μl, using a custom built micro atomizer, at two replications.
After application, the leaf disks were air-dried and 5-8 adult aphids placed on the leaf disks inside the microtiter plate wells. The aphids were then allowed to suck on the treated leaf disks and incubated at about 23±1° C. and about 50±5% relative humidity for 5 days. Aphid mortality and fecundity was then visually assessed.

[7] = test system: Diamond Back Moth (Plutella xylostella); experiment: Diamond back moth, cabbage leaf dip; conditions: foliar, 72 hours after treatment, 3rd instar larvae, read-out: mortality in comparison with untreated controls
Procedure: as §1
Leaves of cabbage were dipped in test solution and air-dried. Treated leaves were placed in petri dish enlined with moist filter paper and inoculated with ten 3rd instar larvae. Mortality was recorded 72 hours after treatment. Feeding damages were also recorded using a scale of 0-100%.

[8] = test system: Southern Armyworm (Spodoptera eridania), 2nd Instar Larvae; experiment: Southern armyworm, sprayed lima bean plants; conditions: 96 h, 4 days after treatment, read-out: mortality in comparison with untreated controls
Procedure: (§3) The active compounds were formulated in cyclohexanone as a 10,000 ppm solution supplied in tubes. The tubes were inserted into an automated electrostatic sprayer equipped with an atomizing nozzle and they served as stock solutions for which lower dilutions were made in 50% ace-tone:50% water (v/v). A nonionic surfactant (Kinetic®) was included in the solution at a volume of 0.01% (v/v).
Lima bean plants (variety sieva) were grown 2 plants to a pot and selected for treatment at the 1st true leaf stage. Test solutions were sprayed onto the foliage by an automated electrostatic plant sprayer equipped with an atomizing spray nozzle. The plants were dried in the sprayer fume hood and then removed from the sprayer. Each pot was placed into perforated plastic bags with a zip closure. About 10 to 11 armyworm larvae were placed into the bag and the bags zipped closed. Test plants were maintained in a growth room at about 25° C. and about 20-40% relative humidity for 4 days, avoiding direct exposure to fluorescent light (24 hour photoperiod) to prevent trapping of heat inside the bags. Mortality and reduced feeding were assessed 4 days after treatment, compared to untreated control plants.

[9] = test system: Green Peach Aphid (Myzus persicae, Mixed Life Stages); experiment: Green peach aphid B.5.1, sprayed bell pepper plants; conditions: 120 h, after 5 days, read-out: mortality in comparison with untreated controls
Procedure: B.5.1. The active compounds were formulated by a Tecan liquid handler in 100% cyclohexanone as a 10,000 ppm solution supplied in tubes. The 10,000 ppm solution was serially diluted in 100% cyclohexanone to make interim solutions. These served as stock solutions for which final dilutions were made by the Tecan in 50% acetone:50% water (v/v) into 10 or 20 ml glass vials. A nonionic surfactant (Kinetic®) was included in the solution at a volume of 0.01% (v/v). The vials were then inserted into an automated electrostatic sprayer equipped with an atomizing nozzle for application to plants/insects.
Bell pepper plants at the first true-leaf stage were infested prior to treatment by placing heavily infested leaves from the main colony on top of the treatment plants. Aphids were allowed to transfer overnight to accomplish an infestation of 30-50 aphids per plant and the host leaves were removed. The infested plants were then sprayed by an automated electrostatic plant sprayer equipped with an atomizing spray nozzle. The plants were dried in the sprayer fume hood, removed, and then maintained in a growth room under fluorescent lighting in a 24-hr photoperiod at about 25° C. and about 20-40% relative humidity. Aphid mortality on the treated plants, relative to mortality on untreated control plants, was determined after 5 days.

[10] = test system: Silverleaf Whitefly (Bemisia argentifolii) (Adults); experiment: Silverleaf whitefly adults, sprayed cotton plants; conditions: at 300, 3 days after treatment
Excerpt: as §3, with “non-ionic” for “nonionic”
Cotton plants at the cotyledon stage (one plant per pot) were sprayed by an automated electrostatic plant sprayer equipped with an atomizing spray nozzle. The plants were dried in the sprayer fume hood and then removed from the sprayer. Each pot was placed into a plastic cup and about 10 to 12 whitefly adults (approximately 3-5 days old) were introduced. The insects were collected using an aspirator and a nontoxic Tygon® tubing connected to a barrier pipette tip. The tip, containing the collected insects, was then gently inserted into the soil containing the treated plant, allowing insects to crawl out of the tip to reach the foliage for feeding. Cups were covered with a reusable screened lid. Test plants were maintained in a growth room at about 25° C. and about 20-40% relative humidity for 3 days, avoiding direct exposure to fluorescent light (24-hour photoperiod) to prevent trapping of heat inside the cup. Mortality was assessed 3 days after treatment, compared to untreated control plants.

[11] = test system: Green Soldier Stink Bug (Nezara viridula); experiment: Green soldier stink bug, sprayed soybean pods in Petri dishes; conditions: 120 h, after 5 days, late 3rd instar, read-out: mortality in comparison with untreated controls
Procedure: The active compound was dissolved at the desired concentration in a mixture of 1:1 (vol:vol) distilled water:aceteone. Surfactant (Kinetic® HV) is added at a rate of 0.01% (vol/vol). The test solution was prepared at the day of use.
Soybean pods were placed in 90×50 mm glass Petri dishes lined with moist filter paper and inoculated with ten late 3rd instar N. viridula. Using a hand atomizer, an approximately 2 ml solution is sprayed into each Petri dish. Treated cups were kept at about 25-26° C. and relative humidity of about 65-70%. Percent mortality was recorded after 5 days.

[12] = at 2500 ppm, 3 days, systemic, artificial diet

Row | SMILES | mortality at 300 ppm [1] [%] | mortality at 2500 ppm [2, 12] [%] | mortality at 300 ppm [3] [%] | mortality at 300 ppm [4] [%] | mortality at 2500 ppm [5] [%] | mortality at 2500 ppm [6] [%] | mortality at 300 ppm [7] [%] | mortality at 300 ppm [8] [%] | mortality at 300 ppm [9] [%] | mortality in comparison with untreated controls [10] | mortality at 300 ppm [11] [%] | mortality at 2500 ppm [2] [%]
1 | COc1ccc(-c2c([O-])n3c([n+](C)c2=O)N(C)CC3c2cnc(Cl)s2)cc1 (centres unmarked) [Compound C-1, 3-(2-chlorothiazol-5-yl)-6-(4-methoxyphenyl)-1,8-dimethyl-7-oxo-2,3-dihydroimidazo[1,2-a]pyrimidin-8-ium-5-olate] | > 75 | > 75 | – | – | – | – | – | – | – | – | – | –
2 | C[n+]1c([O-])c(-c2ccccc2)c(=O)n2c1N(C(=O)OC(C)(C)C)CC2c1cnc(Cl)s1 (centres unmarked) [Compound C-2] | – | > 75 | – | – | – | – | – | – | – | – | – | –
3 | CN1CC(c2cnc(Cl)s2)n2c1[n+](C)c([O-])c(-c1ccccc1)c2=O (centres unmarked) [Compound C-3] | > 75 | > 75 | > 75 | > 75 | > 75 | > 75 | – | – | – | – | – | –
4 | CN1CC(c2cnc(Cl)s2)n2c1[n+](C)c([O-])c(-c1cc(Cl)cc(Cl)c1)c2=O (centres unmarked) [Compound C-4] | > 75 | > 75 | > 75 | > 75 | > 75 | > 75 | > 75 | > 75 | – | – | – | –
5 | CN1CC(c2cnc(Cl)s2)n2c1[n+](C)c([O-])c(-c1cccc(C(F)(F)F)c1)c2=O (centres unmarked) [Compound C-5] | > 75 | > 75 | > 75 | > 75 | > 75 | > 75 | > 75 | > 75 | > 75 | over 75% | > 75 | –
6 | CN1C[C@@H](c2cnc(Cl)s2)n2c1[n+](C)c([O-])c(-c1cccc(C(F)(F)F)c1)c2=O [Compound C-20] | > 75 | > 75 | – | – | – | > 75 | – | > 75 | – | – | > 75 | –
7 | CN1CC(c2ccc(Cl)nc2)n2c1[n+](C)c([O-])c(-c1cc(Cl)cc(Cl)c1)c2=O (centres unmarked) [Compound C-21] | – | – | – | – | – | – | – | – | – | – | – | > 75
8 | C[n+]1c2n(c([O-])c(-c3ccccc3)c1=O)C(c1cnc(Cl)s1)CN2 (centres unmarked) [Compound C-25] | – | – | – | – | – | – | – | – | – | – | – | > 75
